Reference: patent publication US7230033B2, “Pest control compositions and methods for their use” (United States of America as represented by the Secretary of …, priority 2000, dated 2007)

Experiments:
[1] = test system: ticks, fleas, and mosquitoes; assay: Residual activity, general statements (Examples 9, 17); format: in vivo; details: ticks
Ae. aegypti adults = assay: Adult mosquito bottle bioassay; format: in vivo, Aedes aegypti; details: for Slope: probit; for LC50 (15 min) / LC50 (24 h) / LC90 (15 min) / LC90 (24 h): Aedes aegypti adult mosquitoes, alone, or 1:1 with carvacrol (in parenthesis)
Method: (§1) Adult mosquitoes were tested using the bottle bioassay method of Brogden and McAllister (J. Am. Mosq. Control Assoc., 14:159–64, 1998) with minor modifications. Natural product extracts were two-fold serially diluted for a total of 8 concentrations ranging from 0.002% to 0.25% in 1.5 ml of acetone. Individual dilutions were added to 250 ml Wheaton glass bottles and capped. Bottles were manipulated to evenly coat all inner surfaces. The caps were removed and bottles were allowed to air-dry overnight. Once bottles were completely dry, 10–50 (in some tests 25–50) adult mosquitoes were aspirated into the bottles. Mosquitoes were held in the bottles for 24 h at 23° C. and 85% RH. Morbidity and mortality were recorded at 15, 30, 45, and 60 min and 24 hour intervals. One bottle for each replicate was treated with acetone only and served as a control. The dose-mortality data was evaluated with probit analysis, using the LdP Line software, to determine LC50 and LC90 values.
Carvacrol was combined with compound 7, 9, or 10 at a 1:1 ratio (7.5 μl of carvacrol:7.5 μl of compound 7, 9, or 10 was added to 2,985 μl of acetone for a 0.5% solution, from which serial dilutions were made), and tested as previously described against nymphal ticks and adult and larval mosquitoes.

[2] = test system: Ixodes scapularis nymphal ticks; assay: Tick repellency bioassay; format: in vivo
Description: One-hundred (100) μl of test compound was pipetted onto a cotton-tipped applicator mounted to the bottom center of a 1 dram glass shell vial using non-toxic modeling clay. A total of 8 concentrations were screened with doses ranging from 0.04–5.0%. Applicators treated with acetone only served as controls. A line was drawn around the perimeter of the vial immediate to the base of the treated cotton portion of the applicator. The area above the line was designated the “repellent zone”. The vial was allowed to air-dry 1 h before a single tick was introduced. Vials were covered with a single piece of mesh and fitted with a hollowed-out plastic cap to cover the opening of the vial; this prevented the tick from escaping but allowed for air exchange. Vials were breathed upon by investigators at 1 min intervals and a hand was placed over the test vials to provide stimuli for ticks to pass into the repellent zone. […] If the tick crossed over and remained in the “repellent zone” for ≧5 sec, the tick was deemed non-repelled by the test compound. Each test was replicated 10 times using a new tick for each test. Repellent activity was determined at 1, 2, 3, and 4 h after treatment. Probit analysis was used to determine repellent efficacy (RD50 and RD95).

Aedes aegypti adults = assay: Residual activity, aged treated bottles, mosquitoes; format: in vivo
Method: as §1

I. scapularis nymphs = assay: Tick bioassay, treated 2-dram vials, probit analysis; format: in vivo, Ixodes scapularis; details: for Slope: probit; for LC50 (1 h) / LC50 (24 h) / LC90 (1 hr) / LC90 (24 h): Ixodes scapularis nymphal ticks, alone, or 1:1 with carvacrol (in parenthesis)
Description: A control treated with acetone only was run with each series.
For each time point, if ticks and fleas were incapable of movement, maintaining normal posture, leg coordination, ability to right themselves, or any signs of life, they were considered moribund or dead.

Ixodes scapularis nymphs = assay: Residual activity, aged treated vials, ticks; format: in vivo; details: for LC90, residual activity: NE = not effective
Method: (§2) Briefly, groups of 10 nymphal I. scapularis and X. cheopis fleas were used in all tests (more than a total of 5,240 nymphs and 4,860 fleas were exposed to the compounds). The inner surface of 2-dram friction cap vials were treated with the compound/acetone solution, or acetone only as a control, and left to air-dry overnight (see also, Panella et al., J. Med. Entomol., 42(3):352-358, 2005. Three to 4 holes were made in the plastic cap to allow for air exchange. Nymphal ticks and adult fleas were then placed directly into the vials using forceps. Vials containing ticks or fleas were placed in desiccators for 24 h at 21° C. and 90% RH. Morbidity and mortality was recorded at 1, 2, 4, 8, and 24 h after initial exposure.

[3] = test system: Xenopsylla cheopis adults; assay: Residual activity, aged treated vials, fleas; format: in vivo
Method: as §2

X. cheopis adults = assay: Flea bioassay, treated 2-dram vials, probit analysis; format: in vivo, Xenopsylla cheopis; details: 24 h exposure; for Slope: probit
Method: Med. […] A control treated with acetone only was run with each series. Tick and flea susceptibility was evaluated using a modification of the disposable pipette method of Barnard et al. (J. Econ. Entomol., 74:466-69, 1981) and Maupin and […]. Med. […] The inner surface of 2-dram friction cap vials were treated with the compound/acetone solution, or acetone only as a control, and left to air-dry overnight (see also, […] et al., J. Med. […] Three to 4 holes were made in the plastic cap to allow for air exchange. Nymphal ticks and adult fleas were then placed directly into the vials using forceps. […] For each time point, if ticks and fleas were incapable of movement, maintaining normal posture, leg coordination, ability to right themselves, or any signs of life, they were considered moribund or dead.

[4] = test system: fourth-instar Aedes aegypti larvae; assay: Larval mosquito bioassay; format: in vivo; details: Aedes aegypti larval mosquitoes, concentration of the 1 ml added to 150 ml water
Method: Individual groups of 10 fourth-instar Aedes aegypti larvae were contained in 150 ml of water and exposed to […] of essential oils prepared by 2-fold serial dilutions ranging from 0.06%–5.0% in 1 ml of acetone. A control group of larvae were exposed to 1 ml of acetone only.
It is important to note that larval mosquitoes are tested in their natural environment, i.e., in water. The particular assays used herein involved groups of 10 larval mosquitoes in 150 ml of water. The weight percentages reported for lethal concentration for larval mosquitoes are the weight percentages added to the 150 ml water (as opposed to the final percentage of the tested compound(s) in the 150 ml water). As one of skill in the art will appreciate, test compound(s) added to a volume of water (such as, 150 ml) can be dramatically diluted depending upon the water solubility of the tested compound. […] If the tested compound is an oil (such as, carvacrol, nootkatone, or 13-hydroxy-valencene), it most likely floats on the surface of the water.

[5] = test system: nymphal Ixodes scapularis; assay: Treated-vial biocidal screening with 2% acetone solutions (Example 2), tick nymphs; format: in vivo; details: treated vials sat 72 h; arthropods added for the final 24 h
Method: (§3) Samples of the compounds listed below were obtained as described in Example 1, and screened for biocidal activities against nymphal Ixodes scapularis. In this example, 2% acetone solutions (wt/vol) of the compounds were applied to inner surfaces of 2-dram friction cap vials. Vials and caps were treated then allowed to dry for a minimum of 4 hours before placing 10 nymphs in each container. These same vials were used to challenge additional nymphs and adult I. scapularis ticks and adult Xenopsylla cheopis fleas through five weeks to observe any possible residual activity.
(§4) Numbers in parentheses refer to length of treatment in terms of hours (h) or weeks (wk). Data is presented in terms of number killed/number tested. For test periods longer than 24 hours, the treated vials were allowed to sit for the stated period after drying (72 h, 4 wk, or 5 wk) and each group of arthropods was added to the vials for the final 24 h of the test period.

[6] = test system: adult I. scapularis ticks; assay: Treated-vial biocidal screening with 2% acetone solutions (Example 2), adult ticks, residual; format: in vivo, Ixodes scapularis; details: treated vials sat 4 wk; arthropods added for the final 24 h
Method: as §3, §4

[7] = test system: adult Xenopsylla cheopis fleas; assay: Treated-vial biocidal screening with 2% acetone solutions (Example 2), adult fleas, residual; format: in vivo; details: treated vials sat 5 wk; arthropods added for the final 24 h
Method: as §3, §4

[8] = 24 h exposure, NE = not effective at concentrations tested
[9] = 1 h after compound applied to applicator, listed as Nootkatone (Compound 9)
[10] = 4 h after compound applied to applicator, listed as Nootkatone (Compound 9)
[11] = 2 weeks after treatment, NE = not effective
[12] = 1 h after compound applied to applicator
[13] = 4 h after compound applied to applicator

C=C(C)[C@@H]1CCC2=CC(=O)C[C@@H](C)[C@]2(C)C1 [Compound 9, Nootkatone] was tested, and the residual activity [1] was “considerable biological activity through the four week time period”, the LC90 (Ae. aegypti adults; [8]) was 0.021 percent concentration, wt:vol and the Slope (Ae. aegypti adults; 24 h exposure) was 2.845. For the same molecule, the “LC50 (15 min)” value (Ae. aegypti adults) was 0.136 % (wt:vol), the “LC50 (24 h)” value (Ae. aegypti adults) was 0.0075 % (wt:vol) and the “LC90 (15 min)” value (Ae. aegypti adults) was 0.453 % (wt:vol). The “LC90 (24 h)” value (Ae. aegypti adults) was 0.021 % (wt:vol), the “Slope (±SEM)” value ([2]; 1 h, listed as Nootkatone (Compound 9)) was 1.326 (±0.345) and the RD50 [2, 9] was 0.101 % (wt:vol). The RD95 [2, 9] was 1.758 % (wt:vol), the “Slope (±SEM)” value ([2]; 4 h, listed as Nootkatone (Compound 9)) was 1.406 (±0.299) and the RD50 [2, 10] was 0.173 % (wt:vol). For the same molecule, the RD95 [2, 10] was 2.561 % (wt:vol), the “LC90, residual activity” value (Aedes aegypti adults; 1 week after treatment) was 0.018 percent concentration, wt:vol and the “Slope, residual activity” value (Aedes aegypti adults; 1 week after treatment) was 4.336. For the same molecule, the “Slope, residual activity” value (Aedes aegypti adults; 2 weeks after treatment) was 4.014, the “LC90, residual activity” value (Aedes aegypti adults; [11]) was 0.0088 percent concentration, wt:vol and the “Slope, residual activity” value (Aedes aegypti adults; 4 weeks after treatment) was 4.169. For the same molecule, the LC90 (I. scapularis nymphs; [8]) was 0.0087 percent concentration, wt:vol, the Slope (I. scapularis nymphs; 24 h exposure) was 3.061 and the “LC50 (1 h)” value (I. scapularis nymphs) was 0.016 % (wt:vol). The “LC50 (24 h)” value (I. scapularis nymphs) was 0.0033 % (wt:vol), the “LC90 (1 hr)” value (I. scapularis nymphs) was 0.331 % (wt:vol) and the “LC90 (24 h)” value (I. scapularis nymphs) was 0.0087 % (wt:vol). For the same molecule, the “LC50 (1 h)” value (I. scapularis nymphs; listed as compound 9) was 0.016 % (wt:vol), the “Slope, residual activity” value (Ixodes scapularis nymphs; 1 week after treatment) was 1.304 and the “LC90, residual activity” value (Ixodes scapularis nymphs; 1 week after treatment) was 0.08 percent concentration, wt:vol. The “Slope, residual activity” value (Ixodes scapularis nymphs; 2 weeks after treatment) was 2.649, the “LC90, residual activity” value (Ixodes scapularis nymphs; 2 weeks after treatment) was 0.027 percent concentration, wt:vol and the “Slope, residual activity” value ([3]; 1 week after treatment) was 1.633. For the same molecule, the “Slope, residual activity” value ([3]; 2 weeks after treatment) was 2.571, the “Slope, residual activity” value ([3]; 4 weeks after treatment) was 3.135 and the LC90 (X. cheopis adults; NE = not effective at concentrations tested) was 0.018 percent concentration, wt:vol. The Slope (X. cheopis adults) was 2.9, the “LC50 (1 h)” value [4] was 6.51 % (wt:vol) and the “LC50 (24 h)” value [4] was 1.574 % (wt:vol). The “LC90 (1 hr)” value [4] was 22.644 % (wt:vol) and the “LC90 (24 h)” value [4] was 2.757 % (wt:vol).

For C=C(CO)C1CCC2=CCC[C@@H](C)[C@]2(C)C1 (stereo partly drawn) [Compound 10, 13-hydroxy-valencene], the residual activity [1] was “considerable biological activity through the four week time period”, the Slope (Ae. aegypti adults; 24 h exposure) was 2.094 and the “LC50 (15 min)” value (Ae. aegypti adults) was 0.077 % (wt:vol). For the same molecule, the “LC50 (24 h)” value (Ae. aegypti adults) was 0.0034 % (wt:vol), the “LC90 (15 min)” value (Ae. aegypti adults) was 0.373 % (wt:vol) and the “LC90 (24 h)” value (Ae. aegypti adults) was 0.014 % (wt:vol). For the same molecule, the “Slope (±SEM)” value ([2]; 1 h) was 1.332 (±0.313), the RD50 [2, 12] was 0.095 % (wt:vol) and the RD95 [2, 12] was 1.637 % (wt:vol). For the same molecule, the “Slope (±SEM)” value ([2]; 4 h) was 1.066 (±0.307), the RD50 [2, 13] was 0.114 % (wt:vol) and the RD95 [2, 13] was 3.993 % (wt:vol). The “LC90, residual activity” value (Aedes aegypti adults; 1 week after treatment) was 0.058 percent concentration, wt:vol, the “Slope, residual activity” value (Aedes aegypti adults; 1 week after treatment) was 3.286 and the “Slope, residual activity” value (Aedes aegypti adults; 2 weeks after treatment) was 6.932. For the same molecule, the “LC90, residual activity” value (Aedes aegypti adults; [11]) was 0.021 percent concentration, wt:vol, the “Slope, residual activity” value (Aedes aegypti adults; 4 weeks after treatment) was 2.645 and the “LC90, residual activity” value (Aedes aegypti adults; 4 weeks after treatment, NE = not effective) was 0.04 percent concentration, wt:vol. The Slope (I. scapularis nymphs; 24 h exposure) was 2.562, the “LC50 (1 h)” value (I. scapularis nymphs) was 0.017 % (wt:vol) and the “LC50 (24 h)” value (I. scapularis nymphs) was 0.0054 % (wt:vol). The “LC90 (1 hr)” value (I. scapularis nymphs) was 0.065 % (wt:vol), the “LC90 (24 h)” value (I. scapularis nymphs) was 0.014 % (wt:vol) and the “Slope, residual activity” value (Ixodes scapularis nymphs; 1 week after treatment) was 3.005. For the same molecule, the “LC90, residual activity” value (Ixodes scapularis nymphs; 1 week after treatment) was 0.019 percent concentration, wt:vol, the “Slope, residual activity” value (Ixodes scapularis nymphs; 2 weeks after treatment) was 1.781 and the “LC90, residual activity” value (Ixodes scapularis nymphs; 2 weeks after treatment) was 0.044 percent concentration, wt:vol. For the same molecule, the “Slope, residual activity” value (Ixodes scapularis nymphs; 4 weeks after treatment) was 1.285, the “Slope, residual activity” value ([3]; 1 week after treatment) was 2.218 and the “Slope, residual activity” value ([3]; 2 weeks after treatment) was 2.442. The Slope (X. cheopis adults) was 3.143, the “LC50 (1 h)” value [4] was 5.132 % (wt:vol) and the “LC50 (24 h)” value [4] was 0.975 % (wt:vol). The “LC90 (1 hr)” value [4] was 13.425 % (wt:vol), the “LC90 (24 h)” value [4] was 1.23 % (wt:vol) and the “LC50 (24 h)” value ([4]; listed as 13-hydroxy-valencene) was 1.23 % (wt:vol).

In the case of CC(C)=CCc1ccc(O)c(=O)cc1C(C)C [Compound 11, Nootkatin], the Slope (Ae. aegypti adults; 24 h exposure) is reported as 1.327, the “I. scapularis nymphs (72 h), number killed/number tested” value [5] is reported as 0/5 and the “I. scapularis adults (4 wk), number killed/number tested” value [6] is reported as 0/5. For the same molecule, the “X. cheopis adults (5 wk), number killed/number tested” value [7] was 0/5.
